From publication PMC10488149 (International Journal of Molecular Sciences, 2023)

Legend:
[1] = biological target: T1, α1-acid glycoprotein (AGP) (Homo sapiens, UniProt P02763); test: Fluorescence titration
Text: Fluorescence spectra were collected using an emission detector module of the ChirascanPlus spectropolarimeter (APL), fixing the PMU of the detector at 600 mV. For every measurement, a 1 cm quartz cell, which is suitable for CD and fluorescence, was used. Experimental details: 1 cm cell pathlength, 500–310 nm emission scan, λexc 305 nm, and 5 nm excitation bandwidth.

[2] = biological target: T2, human serum albumin (HSA) (Homo sapiens, UniProt P02768); test: Thermal denaturation followed by CD at 191 nm; format: binding; details: HSA with ligand
T2 construct: purchased Sigma A3782
Procedure: (§1) The Hill fitting was performed with OriginLab.
(§2) The evaluation of molar enthalpies (ΔHm) and entropies (ΔSm) at the melting temperature for the melting process was calculated assuming a two-state native-to-unfolded model. The molar ratios at different temperatures were determined using the linear extrapolations of plateau at T >> Tm and T << Tm for the Boltzmann fitting curves, assuming that only denatured protein was present at T >> Tm and only native at T << Tm. The reversibility was assumed to be around Tm ± 5 °C, and the relative molar ratios for native and denatured species was used to determine the equilibrium constants and the associated Gibbs free energy (ΔGm, from ΔGm = −RT·lnK). Following the given relationship, ΔGm was supposed to be ~0 at the Tm (K^(Tm) ~ 1). ΔHm and ΔSm were calculated at Tm by interpolating with a linear model the ±5 °C region of the ΔGm vs. T curve around Tm, assuming the intercept corresponding to ΔHm, previous correction from °C to Kelvin, and the slope to −ΔSm, assuming a y = a − bx model, where ΔGm^(Tm) = ΔHm^(Tm) − TmΔSm^(Tm) at ΔGm^(Tm) = 0.
(§3) For the thermal denaturations, Boltzmann fitting with the equation y = y0 + A * (frac/(1 + exp ((x − x01)/k1)) + (1 − frac)/(1 + exp((x − x02)/k2))) was used. The SRCD spectra as a function of temperature were recorded with B23 module B with synchrotron operation at 300 or 350 mA, using rotating cell for thermal denaturation with 0.02 cm cell pathlength, 0.5 mm slit, 1 sec integration time, and 1 nm increment in the 260–180 nm spectral region.

[3] = biological target: T1, α1-acid glycoprotein (AGP); format: binding
Procedure: as §1, §2, §3

[4] = biological target: T1, α1-acid glycoprotein (AGP); test: in vitro; details: isolated α1-acid glycoprotein (AGP) in solution
Procedure: SRCD single-spectra and UV denaturation experiments were recorded on the module B unit at B23 (Diamond Light Source, Didcot, UK) using a 6-cell sample turret. The following are the experimental parameters for UV denaturation: 30 scans, 260–180 nm range, 0.5 mm slit, 1 s integration time, 1 nm increment. The thermal denaturation experiments were performed with an Applied Photophysics (APL) ChirascanPlus spectropolarimeter. […] The baseline of water or buffer was subtracted from the CD spectra of proteins with or without ligands. Far-UV (180–250 nm) denaturation SRCD measurements were collected in 0.02 cm rotating cells with a 70 μL volume. Thermal denaturations were recorded with both B23 beamline and ChirascanPlus (APL, Leatherhead, UK). For CD titration, the protocol used was to measure the CD spectrum of each protein–ligand mixture at various ligand molar ratios by adding a small aliquot of ligand (few microliters of an appropriate concentration of ligand stock solution) to the protein in the cuvette cell. […] The same method was used for the titration via fluorescence spectroscopy.
The CD spectra were processed using CD Apps [27] and OriginPro. […] The evaluated parameters of melting temperature (Tm) were reported in °C and half-live (t1/2) for photo degradation in s (y = A1exp (−x/t1) + y0, t1/2 = t1log2). […]

T2 sequence (P02768 25-609): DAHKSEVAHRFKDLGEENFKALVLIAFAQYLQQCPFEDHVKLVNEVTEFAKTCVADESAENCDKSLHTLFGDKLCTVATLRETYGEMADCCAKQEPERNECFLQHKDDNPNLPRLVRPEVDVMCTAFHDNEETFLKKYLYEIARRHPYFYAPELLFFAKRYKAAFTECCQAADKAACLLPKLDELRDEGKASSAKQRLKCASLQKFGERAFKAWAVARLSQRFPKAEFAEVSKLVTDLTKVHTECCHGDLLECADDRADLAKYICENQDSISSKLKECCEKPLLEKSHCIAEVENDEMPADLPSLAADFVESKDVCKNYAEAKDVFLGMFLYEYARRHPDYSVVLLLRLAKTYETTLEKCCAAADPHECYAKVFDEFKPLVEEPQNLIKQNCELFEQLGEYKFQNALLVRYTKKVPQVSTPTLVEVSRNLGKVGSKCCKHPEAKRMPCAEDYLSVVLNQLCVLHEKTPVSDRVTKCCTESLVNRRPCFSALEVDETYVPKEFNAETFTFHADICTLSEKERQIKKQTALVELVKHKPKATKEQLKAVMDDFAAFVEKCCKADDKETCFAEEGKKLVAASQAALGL
T1 sequence (P02763 19-201): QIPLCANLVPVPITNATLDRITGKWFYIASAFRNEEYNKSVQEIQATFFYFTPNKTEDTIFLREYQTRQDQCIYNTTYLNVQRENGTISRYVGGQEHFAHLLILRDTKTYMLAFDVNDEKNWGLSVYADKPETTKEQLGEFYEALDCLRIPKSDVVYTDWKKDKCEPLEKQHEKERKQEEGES

SMILES | Kd [1] | Tm (°C) [A] ([2]; Boltzmann fitting of experimental data, 191 nm, HSA alone 74.1) | Tm (°C) [B] ([2]; T at which ΔGm,Tm = 0, 191 nm, HSA alone 67.3) | ΔHm, Tm ([2]; linear fitting around Tm, HSA alone 85.8) | ΔSm, Tm ([2]; linear fitting around Tm, HSA alone 252.3) | Kd ([1]; isolated α1-acid glycoprotein (AGP) in solution) | Tm (°C) [B] [3] | ΔHm, Tm ([3]; AGP with ligand, linear fitting around Tm, AGP alone 127.8) | ΔSm, Tm ([3]; AGP with ligand, linear fitting around Tm, AGP alone 392.1) | Kd [4]
Cc1c(N)nc([C@H](CC(N)=O)NC[C@H](N)C(N)=O)nc1C(=O)N[C@H](C(=O)N[C@H](C)[C@@H](O)[C@H](C)C(=O)N[C@H](C(=O)NCCc1nc(-c2nc(C(=O)NCCC[S+](C)C)cs2)cs1)[C@@H](C)O)[C@@H](O[C@@H]1O[C@@H](CO)[C@@H](O)[C@H](O)[C@@H]1O[C@H]1O[C@H](CO)[C@@H](O)[C@H](OC(N)=O)[C@@H]1O)c1c[nH]cn1 [A2, bleomycin A2] | 13.2 µM |  |  |  |  |  |  |  |  | 
Cc1c(N)nc([C@H](CC(N)=O)NC[C@H](N)C(N)=O)nc1C(=O)N[C@H](C(=O)N[C@H](C)[C@@H](O)[C@H](C)C(=O)N[C@H](C(=O)NCCc1nc(-c2nc(C(=O)NCCCCNC(=N)N)cs2)cs1)[C@@H](C)O)[C@@H](O[C@@H]1O[C@@H](CO)[C@@H](O)[C@H](O)[C@@H]1O[C@H]1O[C@H](CO)[C@@H](O)[C@H](OC(N)=O)[C@@H]1O)c1c[nH]cn1 [B2, bleomycin B2] |  | 65.0 °C | 62.2 °C | 91.0 kJ^.mol^−1 | 271.6 J·K^−1·mol^−1 | 13.7 µM | 51.7 °C | 122.3 kJ^.mol^−1 | 376.5 J·K^−1·mol^−1 | 1.37 µM
